Holding throughout (assay): Gi protein activation catalyzed by BLT2 mutant
Assay type in all cases: biochemical

Assay [1] concerns the target T1, BLT2 H177^ECL2A (Homo sapiens, UniProt Q9NPC1, H177A).
T1 construct: made in house
T1 sequence (Q9NPC1 1-358 H177A): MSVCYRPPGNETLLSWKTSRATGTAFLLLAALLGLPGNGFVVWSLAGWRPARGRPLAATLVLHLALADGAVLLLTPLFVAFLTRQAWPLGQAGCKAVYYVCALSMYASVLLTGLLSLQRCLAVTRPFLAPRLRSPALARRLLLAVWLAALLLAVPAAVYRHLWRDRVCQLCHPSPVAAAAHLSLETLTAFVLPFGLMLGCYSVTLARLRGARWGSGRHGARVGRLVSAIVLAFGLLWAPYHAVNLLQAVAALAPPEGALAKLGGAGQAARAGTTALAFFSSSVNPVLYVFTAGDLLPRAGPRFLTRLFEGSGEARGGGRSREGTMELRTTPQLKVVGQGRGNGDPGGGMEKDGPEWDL
The protocol: (§1) All mutations were introduced in the wild-type BLT2 receptor by PCR-mediated mutagenesis using the QuickChange multisite-directed mutagenesis kit (Stratagene) and the wild-type BLT2 construct as a template. Mutations were confirmed by nucleotide sequencing. […] Gαi2 and Gβ1γ2 were prepared as previously described. […] The data were normalized to the fluorescence maximum obtained in the presence of saturating concentrations in 12–HHT (10 μM).

Assay [2] has as its target T2, BLT2 T274^7.39A (Homo sapiens, UniProt Q9NPC1, T274A).
T2 construct: made in house
T2 sequence (Q9NPC1 1-358 T274A): T1 sequence (Q9NPC1 1-358 H177A) with A177H, T274A
The protocol: as §1

Assay [3] deals with T3, BLT2 R160^4.64A (Homo sapiens, UniProt Q9NPC1, R160A).
T3 construct: made in house
T3 sequence (Q9NPC1 1-358 R160A): T1 sequence (Q9NPC1 1-358 H177A) with R160A, A177H
As to the method:
as §1

In assay [4] the target is T4, BLT2 E185^5.42A (Homo sapiens, UniProt Q9NPC1, E185A).
T4 construct: made in house
T4 sequence (Q9NPC1 1-358 E185A): T1 sequence (Q9NPC1 1-358 H177A) with A177H, E185A
As to the method:
as §1

Assay [5] addresses T5, BLT2 R166^ECL2A (Homo sapiens, UniProt Q9NPC1, R166A).
T5 construct: made in house
T5 sequence (Q9NPC1 1-358 R166A): T1 sequence (Q9NPC1 1-358 H177A) with R166A, A177H
As to the method:
as §1

Assay [6] has as its target T6, BLT2 P175^ECL2A (Homo sapiens, UniProt Q9NPC1, P175A).
T6 construct: made in house
T6 sequence (Q9NPC1 1-358 P175A): T1 sequence (Q9NPC1 1-358 H177A) with P175A, A177H
As to the method: as §1

Numbering of substitutions follows the chain as printed.

As usually defined, the EC50 is the midpoint of the concentration-response curve. `CCCCC[C@H](O)/C=C/C=C/C/C=C\CCCC(=O)O` [12–HHT, 12S–hydroxyheptadeca-5Z,8E,10E-trienoic acid]: the “effect of the mutation on ligand binding” value in assay [1] (H177^ECL2 to alanine compared to wild-type, in words) was “do not display a significant impact on ligand binding”; in assay [2] (T274^7.39A compared to wild-type, in words), “do not impact receptor ligand properties”; in assay [3] (R160^4.64A compared to wild-type, in words) it was “no effect”; in assay [4] (E185A compared to wild-type, in words), “did not significantly affect”; in assay [5] (R166^ECL2 mutation compared to wild-type, in words), “do not impact receptor ligand properties”; in assay [6] (P175^ECL2 to alanine compared to wild-type, in words), “do not display a significant impact on ligand binding”. Besides, the EC50 was 24.3 nM in assay [1] (construct H177^ECL2A); 27.7 nM in assay [2] (construct T274^7.39A); 20.5 nM in assay [3] (construct R160^4.64A); 70.7 nM in assay [4] (construct E185^5.42A); 20.7 nM in assay [5] (construct R166^ECL2A); 38.9 nM in assay [6] (construct P175^ECL2A).
